Measurements: patent US12605358B2, “Composition for preventing or treating nervous system diseases comprising compound that inhibits mTOR signaling pathway as active ingredient” (ALIAD BIOPHARMA, priority 2021, dated 2026)

Assays:
5xFAD transgenic mice [1] = assay: Autophagy activation in neurons and microglia (Iba-1/MAP2/LC3 staining); assay type: in vivo; settings: FIG. 16
Method: 5xFAD animals were administered with HN-1703 at three doses for 14 days to male heterozygotes aged 6 months (all born within 3 days). The behaviors of mice were measured in a dark cycle in which the mice were active while alternating light and dark in a 12-hour cycle in a breeding room chamber, and the mice were freely accessible to food and water and bred in compliance with experimental animal ethical guidelines of Kyung Hee University. In each group, the HN-1703 was intraperitoneally injected at the same time once a day in a volume of 100 μl to 12 mice in a normal group (wild type littermate), 9 5xFAD mice in a vehicle (DMSO administration), 8 5xFAD mice in a 5 mg/kg administered group, 9 5xFAD mice in a 10 mg/kg administered group, and 9 5xFAD mice in a 20 mg/kg administered group. […] In a behavioral measurement room, humidity (40 to 60%) and temperature (22 to 26° C.) were maintained, and reflected light was maintained to avoid sound and light effects. Behavioral measures were measured in Y-maze, Morris Water Maze, and Passive Avoidance test for 18 days in sequence.
A brain slice immunostaining method was modified and used as described in Heo H et al. (J Ethnopharmacol, 2009). Mice were transcardially perfused with 4% PFA. After being immersed and fixed in 4% PFA for 4 hours, the brain tissue was unfrozen in 30% sucrose, frozen in an optimal cutting temperature (OCT) mixture, and stored at −80° C. Brain tissue slices were sectioned in a coronal direction at a thickness of 35 μm. The brain tissue slices were immersed in a storage solution (30% glycerol, 30% ethylene glycol, PBS) and stored at 4° C. The stored brain slices were permeabilized in 0.5% Triton X-100 for 20 minutes and shaken in 2 N HCl for 30 minutes at 37° C. Then, the brain slices were blocked in a free-floating state for 2 hours in 15% standard serum, 3% bovine serum albumin (BSA, bio-WORLD, Dublin, OH, USA) and 0.1% Triton X-100. The slices were shaken with a first antibody for 16 hours at 4° C. Thereafter, a second antibody complementary to the first antibody was attached at room temperature (22±1° C.) for 45 minutes. Then, the nuclei were washed with physiological saline (PBS) containing 1 μg/ml PI (propidiumiodide, Sigma) or DAPI (1:4000), and then placed on a slide glass and sealed using an aqueous mount, and observed under a confocal scanning microscope for tissue observation (LSM 810 Carl Zeiss, Oberkochen, Germany). […]
FIG. 16 illustrates confocal scanning micrographs of the hippocampal dentate gyrus region after triple staining with an Iba-1 antibody, an MAP2 antibody, and an LC3 antibody, and quantifying the number of LC3+/MAP2+ cells, the number of LC3+/Iba-1+ cells, the number of MAP2+ cells, and the number of Iba-1+ cells.

primary cultured neurons = assay: LC3-II turnover analysis (LC3 immunoblot); assay type: cell-based, rat; settings: FIG. 3B
mTORC2 = biological target: T1, mTORC2 (Homo sapiens, UniProt P42345); assay: mTORC2 inhibition, immunoblot of AKT Ser473 phosphorylation in HeLa cells; assay type: cell-based; settings: at 40 µM, FIG. 2A
T1 construct: endogenous in cells; host or cells: HeLa
Method: HeLa cells were cultured in DMEM (Dulbesco's Modified Eagles Media) containing 10% FBS, penicillin (100 units/ml), and streptomycin (100 μg/ml) at 37° C. in a 5% CO2 incubator. Culture was started by seeding 4×10^5 cells in a 100 mm culture dish, and subcultured every 3 days.
Immunoblot analysis was performed by the following method. SDS-PAGE-developed proteins were electroblotted and transferred and a PVDF membrane was blocked by shaking for 1 hour in a TBS-T buffer (20 mM Tris, 137 mM NaCl, 0.1% Tween 20) containing 5% skim milk. The membrane was repeatedly washed with a TBS-T buffer three times for 5 minutes, and reacted with a first antibody diluted in a TBS-T buffer containing 5% skim milk or 5% BSA overnight at 4° C. Thereafter, the membrane was repeatedly washed with a TBS-T buffer three times for 5 minutes, and reacted with a second antibody diluted in a TBS-T buffer containing 5% skim milk for 30 minutes at room temperature. The membrane was repeatedly washed with a TBS-T buffer containing 5% skim milk five times for 5 minutes, and then protein bands bound to the second antibody were detected by a chemiluminescence method. […]

5xFAD transgenic mice [2] = assay: Morris water maze test; assay type: in vivo; settings: 5, 10 and 20 mg/kg groups; similar to the normal group
Method: 5xFAD animals were administered with HN-1703 at three doses for 14 days to male heterozygotes aged 6 months (all born within 3 days). The behaviors of mice were measured in a dark cycle in which the mice were active while alternating light and dark in a 12-hour cycle in a breeding room chamber, and the mice were freely accessible to food and water and bred in compliance with experimental animal ethical guidelines of Kyung Hee University. […] Behavioral measures were measured in Y-maze, Morris Water Maze, and Passive Avoidance test for 18 days in sequence.
A Morris water maze test designed by Richard Morris to test spatial memory was performed on a round and rust-free pool with a white inner-surface (diameter 120 cm; height 60 cm). […] On the first day, the mice were trained in free swimming for 1 minute without a platform foothold, and from the second day, while the mice were trained for 1 minute to find the platform using a spatial clue above the water tank by dissolving dye in water so as not to see the foothold, 6 mice or more were set to a group and put into a quadrant once after taking a sufficient rest, and measured by a video camera. […] The captured video pictures were analyzed with a video tracking system (Ethovision water maze program, Noldus Information Technology, Wageningen, Netherlands). […]

For `COc1cc(OC)c2c(=O)c3cc4c(cc3oc2c1)OCO4` [HN-1703, 7,9-dimethoxy-10H-[1,3]dioxolo[4,5-b]xanthen-10-one], the “activated microglia, Iba-1+ cells” value (5xFAD transgenic mice [1]; 5 to 20 mg/kg, compared to the 5xFAD-DMSO control group) was “greatly reduced”, the “number of neurons double-stained with MAP2 and LC3-II” value (5xFAD transgenic mice [1]) was “increased in a dose-dependent manner” and the “number of MAP2+ neurons in the dentate gyrus” value (5xFAD transgenic mice [1]; approaches the WT normal group) was “increased in a dose-dependent manner”. For the same compound, the “autophagy-activated microglia double-stained with LC3-II” value (5xFAD transgenic mice [1]; compared to the 5xFAD-DMSO control group, dose-dependent) was “increased twice or more”, the “LC3-II formation compared to the control group” value (primary cultured neurons; in the presence of bafilomycin A1, a lysosome mature inhibitor) was “significantly increased LC3-II formation” and the “LC3-II (autophagy activation marker) compared to the control group” value (primary cultured neurons; up to 36 hours after treating the compound) was “significantly increased LC3-II”. For the same compound, the “inhibition of mTORC2 activity (AKT Ser473 phosphorylation) compared to the control group” value (mTORC2) was 55% and the “water maze latency time after 4 days of training” value (5xFAD transgenic mice [2]) was “about 35 seconds”.
